These results are taken from ChEMBL document CHEMBL1255393, “Impact of different factors on the probability of clinical response in tigecycline-treated patients with intra-abdominal infections” (Antimicrob Agents Chemother, 2010).

Data set [1] is described as follows: AUC in intra-abdominal infection patient at 100 mg followed by 50 mg every 12 hrs for 5 to 14 days. It counts as ADME, organism-based. Conditions: human, plasma.
Data set [2] is described as follows: Ratio of AUC in intra-abdominal infection patient at 100 mg followed by 50 mg every 12 hrs for 5 to 14 days to MIC for Enterobacteriaceae isolate. It counts as functional.
The next data set concerns Enterobacteriaceae. Put plainly: Antibacterial activity against Enterobacteriaceae isolate obtained from intra-abdominal infection patient. The class given is functional.
Data set [3] can be described thus: Serum clearance in intra-abdominal infection patient at 100 mg followed by 50 mg every 12 hrs for 5 to 14 days. Conditions: human. The class given is ADME, organism-based.

In brackets after ≈: the same amount, converted by molar mass.

In data set [1], `CN(C)c1cc(NC(=O)CNC(C)(C)C)c(O)c2c1C[C@H]1C[C@H]3[C@H](N(C)C)C(O)=C(C(N)=O)C(=O)[C@@]3(O)C(O)=C1C2=O` [TIGECYCLINE] showed an AUC of 6190 ng·h/mL. Besides, in data set [2], the Ratio was 21.8. In the data set with Enterobacteriaceae, this molecule came in with an MIC50 of 0.25 µg/mL (≈ 0.427 µM) and an MIC90 of 1 µg/mL (≈ 1.71 µM). In data set [3], the clearance is 268 mL/min.

As usually defined, the AUC is concentration integrated over time. Low readings indicate less exposure, high ones more exposure. One may read the MIC50 as an inhibitory concentration at the 50% level, which refers to growth in some studies and to a panel of isolates in others. Higher therefore signals weaker potency. What is called MIC90 is an inhibitory concentration at the 90% level, which refers to growth in some studies and to a panel of isolates in others. Read a high MIC90 as weaker potency. As a reminder, the clearance is the volume of plasma or blood freed of the substance per unit of time. The low end stands for a low capacity for elimination, the high end for a high capacity for elimination.
